Assay results from patent publication US12583826B2, “[(1,5-diphenyl-1H-1,2,4-triazol-3-yl)oxy]acetic acid derivatives and salts thereof, crop protection compositions comprising them, methods for producing them and use thereof as safeners” (Bayer Aktiengesellschaft, priority 2019, dated 2026).

Tests used:
[1] = test system: summer wheat (TRZAS; cv. Triso); experiment: Absolute action: reduction of damage by mesosulfuron-methyl on summer wheat, greenhouse post-emergence; format: in vivo; conditions: for Absolute reduction in herbicide damage (damage without safener minus damage with safener): mesosulfuron-methyl 20 g/ha; for Herbicide damage with compound of the formula (I): then mesosulfuron-methyl 20 g/ha, visual 0-100% scale, 14-21 days after application
Description: (§1) 2.1 Absolute Action of Selected Compounds of the Invention Using the Example of Reduction of Damage by Mesosulfuron-Methyl on Summer Wheat (TRZAS) The seeds of the crop plants to be treated are laid out in sandy loam in wood fiber or plastic pots (diameter ˜4 cm), covered with soil and grow in a greenhouse under good conditions for germination and growth. The trial plants were treated at the early leaf stage (BBCH10—BBCH12). In the course of this, the inventive compounds of the general formula (I) formulated in the form of wettable powders (WP) were sprayed onto the above-ground parts of the plants as an aqueous suspension with a water application rate corresponding to 800 l/ha with addition of wetting agent (e.g. 0.2% agrotin) in the specified dose. This was followed by the application of the herbicide. For this purpose, mesosulfuron-methyl, formulated in the form of water-dispersible granules (WG), was sprayed onto the above-ground parts of the plants in the form of an aqueous dispersion with a water application rate corresponding to 800 l/ha with addition of wetting agent (e.g. 0.2% agrotin) in a dose of 20 g/ha. The dose of the herbicide was chosen here such that it causes visually apparent damage (min. 30%, max. 75%) compared to untreated crop plants at the evaluation time on a control group of crop plants without safener treatment that were included in the same trial. After application, the plants were cultivated under good growth conditions in a greenhouse. The damage was visually assessed 14-21 days after application. The damage effect was assessed visually on a scale of 0-100% by comparison with untreated control plants, and averaged over 2-3 repeats per treatment. Examples: • 0%=no noticeable effect compared to the untreated plant • 20%=the treated plant population has 20% damage compared to the untreated control population (e.g. growth height, leaf damage, etc.) • 100%=treated plants completely damaged/killed.

[2] = test system: summer barley (HORVS; cv. Montoya); experiment: Absolute action: reduction of damage by mesosulfuron-methyl on summer barley, greenhouse post-emergence; format: in vivo; conditions: for Absolute reduction in damage (difference): mesosulfuron-methyl 20 g/ha, damage without minus with safener; for Herbicide damage with compound of the formula (I) (%): then mesosulfuron-methyl 20 g/ha, visual 0-100% scale, 14-21 days after application
Description: as §1, with “2.2 Absolute Action” for “2.1 Absolute Action”, “on Summer Barley (HORVS) The seeds” for “on Summer Wheat (TRZAS) The seeds”, “treated are aid out in” for “treated are laid out in”, “soil and grown in a” for “soil and grow in a”, “leaf stage (BBCE10-BBCH12). In the” for “leaf stage (BBCH10—BBCH12). In the”, “control population (e.g.: growth height,” for “control population (e.g. growth height,”

Row | Compound | Absolute reduction in herbicide damage (damage without safener minus damage with safener) ([1]; safener 250 g/ha) | Herbicide damage with compound of the formula (I) ([1]; safener 250 g/ha) | Absolute reduction in damage (difference) ([2]; safener 250 g a.i./ha) | Herbicide damage with compound of the formula (I) (%) ([2]; safener 250 g a.i./ha) | Absolute reduction in herbicide damage (damage without safener minus damage with safener) ([1]; safener 125 g a.i./ha) | Herbicide damage with compound of the formula (I) ([1]; safener 125 g a.i./ha) | Absolute reduction in herbicide damage (damage without safener minus damage with safener) ([1]; safener 500 g a.i./ha) | Herbicide damage with compound of the formula (I) ([1]; safener 500 g a.i./ha) | Absolute reduction in damage (difference) ([2]; safener 125 g a.i./ha) | Herbicide damage with compound of the formula (I) (%) ([2]; safener 125 g a.i./ha) | Absolute reduction in damage (difference) ([2]; safener 500 g a.i./ha) | Herbicide damage with compound of the formula (I) (%) ([2]; safener 500 g a.i./ha) | Absolute reduction in herbicide damage (damage without safener minus damage with safener) ([1]; safener 1000 g/ha) | Herbicide damage with compound of the formula (I) ([1]; safener 1000 g/ha) | Absolute reduction in damage (difference) ([2]; safener 1000 g a.i./ha) | Herbicide damage with compound of the formula (I) (%) ([2]; safener 1000 g a.i./ha)
1 | O=C(O)COc1nc(-c2cc(F)cc(F)c2)n(-c2ccc(F)cc2)n1 [I.54-4] | 23% | 20% | 23% | 37% | – | – | – | – | – | – | – | – | – | – | – | –
2 | CCOC(=O)COc1nc(-c2ccc(Cl)cc2Cl)n(-c2ccc(F)cc2F)n1 [I.44-38] | – | – | – | – | 53% | 10% | 60% | 3% | 43% | 17% | 50% | 10% | – | – | – | –
3 | O=C(O)COc1nc(-c2ccccc2F)n(-c2ccc(F)cc2F)n1 [I.6-38] | – | – | – | – | 50% | 17% | – | – | 53% | 20% | – | – | – | – | – | –
4 | CCOC(=O)COc1nc(-c2ccc(Cl)cc2F)n(-c2ccc(F)cc2F)n1 [I.47-38] | – | – | – | – | 27% | 13% | – | – | 40% | 17% | 47% | 10% | – | – | – | –
5 | COC(=O)COc1nc(-c2ccc(Cl)cc2Cl)n(-c2ccc(F)cc2F)n1 [I.43-38] | – | – | – | – | 30% | 33% | 33% | 30% | 26% | 37% | – | – | – | – | – | –
6 | CCOC(=O)COc1nc(-c2cc(F)cc(F)c2)n(-c2ccc(F)cc2F)n1 [I.53-38] | – | – | 30% | 30% | – | – | – | – | – | – | – | – | 20% | 23% | 40% | 20%
7 | O=C(O)COc1nc(-c2ccccc2)n(-c2ccc(Cl)cc2)n1 [I.3-7] | 23% | 20% | 20% | 40% | – | – | – | – | – | – | – | – | 33% | 10% | – | –
8 | CCOC(=O)COc1nc(-c2ccc(Cl)cc2Cl)n(-c2ccc(Cl)cc2Cl)n1 [I.44-32] | – | – | – | – | 53% | 10% | 56% | 7% | 33% | 27% | 47% | 13% | – | – | – | –
9 | COC(=O)COc1nc(-c2ccccc2F)n(-c2ccc(Cl)cc2F)n1 [I.4-49] | – | – | – | – | 40% | 17% | – | – | 44% | 13% | 47% | 10% | – | – | – | –
10 | O=C(O)COc1nc(-c2ccc(Cl)cc2F)n(-c2ccc(Cl)cc2Cl)n1 [I.48-32] | – | – | – | – | 30% | 30% | 37% | 23% | 40% | 20% | 50% | 10% | – | – | – | –
11 | O=C(O)COc1nc(-c2ccc(Cl)cc2Cl)n(-c2ccc(Cl)cc2F)n1 [I.45-49, {[1-(4-Chloro-2-fluorophenyl)-5-(2,4-dichlorophenyl)-1H-1,2,4-triazol-3-yl]oxy}acetic acid] | – | – | – | – | 20% | 43% | 23% | 40% | 20% | 40% | 30% | 30% | – | – | – | –
12 | CCOC(=O)COc1nc(-c2ccc(Cl)cc2F)n(-c2ccc(Cl)cc2F)n1 [I.47-49] | – | – | – | – | 30% | 30% | – | – | 50% | 10% | – | – | – | – | – | –
13 | O=C(O)COc1nc(-c2ccc(F)cc2)n(-c2ccc(Cl)cc2)n1 [I.12-7] | 23% | 20% | – | – | – | – | – | – | – | – | – | – | – | – | 20% | 40%
14 | O=C(O)COc1nc(-c2ccc(F)cc2F)n(-c2ccc(Cl)cc2)n1 [I.42-7, {[1-(4-Chlorophenyl)-5-(2,4-difluorophenyl)-1H-1,2,4-triazol-3-yl]oxy}acetic acid] | 43% | 0% | 60% | 0% | – | – | – | – | – | – | – | – | – | – | – | –
15 | COC(=O)COc1nc(-c2ccc(Cl)cc2F)n(-c2ccc(Cl)cc2F)n1 [I.46-49] | – | – | – | – | 43% | 10% | – | – | 40% | 20% | 43% | 17% | – | – | – | –
16 | COC(=O)COc1nc(-c2ccc(Cl)cc2Cl)n(-c2ccc(Cl)cc2Cl)n1 [I.43-32] | – | – | – | – | 33% | 30% | 43% | 20% | 26% | 37% | 33% | 30% | – | – | – | –
17 | O=C(O)COc1nc(-c2ccc(Cl)cc2F)n(-c2ccccc2F)n1 [I.48-2] | – | – | – | – | 27% | 3% | – | – | 20% | 27% | 27% | 20% | – | – | – | –
